According to patent US20220016080A1, “COMPOUNDS THAT SELECTIVELY AND EFFECTIVELY INHIBIT HAKAI-MEDIATED UBIQUITINATION, AS ANTI-CANCER DRUGS” (FUNDACIÓN PROFESOR NOVOA SANTOS, priority 2018, published 2022):

Assays:
[1] = tested on: MDCK non-transformed cells; experiment: Soft agar-colony formation assay, MDCK; format: cell-based; details: 21 days
Procedure: Soft agar-colony formation assay was performed on 12-well plates in triplicates at a density of 5×10^3 MDCK and MDCK-Hakai cells/well, or 12×10^3 HT29 cells/well. Cells were seeded in medium with 0.5% low-melting agarose over a layer with 0.75% low-melting agarose (Lonza Rockland, Me., USA). Cells were treated with the indicated inhibitors and DMSO was used as vehicle. Treatment was refreshed every 3 days and, after 21 days for MDCK and MDCK-Hakai cells or 28 days for HT29 cells, number of colonies were quantified. Quantification of five randomly-selected fields of each condition was photographed with a Nikon Eclipse-TI microscope (objective 4×). Experiments were conducted with three triplicates and were repeated three times. Data are represented as mean±SD.

[2] = tested on: non-transformed epithelial MDCK cells; experiment: BrdU proliferation assay, MDCK; format: cell-based; details: 48 h
Procedure: (§1) For BrdU assays, 1×10^4 of indicated cells were plated per well into a 96-well plate. After 24 h, cells were treated with the indicated inhibitors for 48 h. Three independent experiments were plated with six replicates per each condition. Cells were treated with […] BrdU for 2 h. BrdU incorporation into newly synthesized DNA was measured using a cell proliferation colorimetric immunoassay kit according to the manufacturer's instructions (Roche, Switzerland). Results are expressed as mean±S.D. Results are represented as percentage of positive cells (mean±S.D) of three independent experiments.

LoVo cells [3] = experiment: BrdU proliferation assay, LoVo; format: cell-based; details: 48 h
Procedure: as §1

HT-29 cells = experiment: Immunofluorescence of E-cadherin, HT-29; format: cell-based; details: 48 h
Procedure: (§2) For western blot analysis, cells were treated with the indicated inhibitors for 48 h and the whole cell extracts were obtained as described previously. Twenty micrograms of lysates were resolved on a 10% polyacrilamide SDS-PAGE followed by western blot analysis performed as previously described. For immunofluorescence assays cells were grown for 24 h on glass coverslips and treated with the indicated inhibitors for 48 h. Cells were fixed with 4% PFA for 15 min, permeabilized with 0.5% […] and incubated with E-cadherin antibody for 2 h. Coverslips were incubated with fluorescein-tagged secondary antibody (Dakopatts, Sweden) for […]. Finally coverslips were mounted with ProLong Gold antifade reagent (LifeTech, UK) and images were taken in epifluorescence microscope (Olympus) using 40× objective.

renal cancer ACHN cells = experiment: BrdU proliferation assay, ACHN; format: cell-based, human; details: 48 h
Procedure: as §1

LoVo cells [4] = experiment: Western blotting of EMT markers, LoVo; format: cell-based; details: 48 h
Procedure: as §2

[5] = tested on: Hakai-MDCK cell lines (clone 4 and clone 11); experiment: MTT cell viability assay, Hakai-MDCK; format: cell-based; details: both clones of Hakai-MDCK compared to MDCK; 72 h
Procedure: (§3) For cytotoxicity assays, 1×10^4 cells were seeded per well into a 96-well plate. After 24 h cells were treated with the indicated inhibitors for 72 h and a MTT colorimetric cell viability assay was performed following manufacturer's instructions (Sigma Aldrich, St Louis, Mo.). Absorbance was measured at 570 and 630 nm using a Multiskan Plus Reader (Nanoquant Infinite M200 Tecan Trading AG, Switzerland). Dose-response curves were designed with Graph Pad Prism Software and the half-maximal inhibitory concentration (IC50) values were calculated. Represented data are the mean±SEM of at least three independent experiments with six replicates per condition.

LoVo cells [6] = experiment: Immunofluorescence of E-cadherin, LoVo; format: cell-based; details: 48 h
Procedure: as §2

HT29 cells = experiment: BrdU proliferation assay, HT29; format: cell-based; details: 48 h
Procedure: as §1

Hakai-MDCK cells = experiment: Invasion assay, Hakai-MDCK; format: cell-based; details: treated 48 h before seeding
Procedure: For invasion assays, cells were treated with Hakin-1 or DMSO as vehicle for 48 h using 1% FBS during the last 24 hours. 3×10^5 MDCK, MDCK-Hakai or LoVo cells were seeded in a cell invasion chamber (Cell invasion assaykit, Chemicon International) containing medium with 2% FBS. After 72 hours for MDCK and MDCK-Hakai Invasive and 16 h for LoVo cells, invasive cells invaded that reach the lower chamber containing 30% FBS were fixed and stained with crystal violet (Sigma Aldrich, St Louis, Mo.) following the manufacturer's specifications. For migration assays, HT29 cells were cultured with Hakin-1 or DMSO as vehicle for 48 h, using medium without serum the last 24 h. In the cell migration chamber were seeded 3×10^5 HT29 cells (Cell migration kit, Millipore, Bedford, Mass.) containing medium without serum. After 16 h, migrated cells in the lower chamber containing serum with 30% FBS were stained with crystal violet and counted following the manufacturer's specifications. For both invasion and migration assays cells were counted in five fields photographed with an Olympus microscope using a 20× objective, experiments were performed in triplicates for each condition and the assays were repeated at least three times. Results are expressed as mean±SD.

[7] = tested on: LoVo colon tumour cell line; experiment: MTT cell viability assay, LoVo; format: cell-based; details: 72 h
Procedure: as §3

[8] = tested on: ubiquitination in 293T cells; experiment: Ubiquitination assay in 293T cells transfected with v-Src and HA-ubiquitin (Hakai not overexpressed); format: cell-based
Procedure: Six hours after transfection cells were treated with indicated concentrations of Hakin-1, Hakin-5 or the rest of the analogues tested for 36 h. Whole cell extracts were obtained in lysis buffer (20 mM Tris-HCl pH 7.5, 150 mM NaCl and 1% Triton X-100) containing 10 μg/ml leupeptin, 10 μg/ml aprotinin and 1 mM phenylmethanesulphonyl fluoride (PMSF), supplemented with 10 mM N-ethylmaleimide. Cells were harvested and subjected to western blotting using anti-HA antibody to detect ubiquitination.

## O=C(O)c1ccc(-n2nnnc2SCC(=O)c2ccc([N+](=O)[O-])cc2)cc1 [Hakin-1, 4-(5-{[2-(4-nitrophenyl)-2-oxoethyl]thiol}-1H-tetrazol-1-yl)benzoic acid]
[1]
  colony formation (soft agar): no colony formation was detected
[2]
  cell proliferation (BrdU): no effect was detected
LoVo cells [3]
  cell proliferation (BrdU): reduced cell proliferation
HT-29 cells
  E-cadherin levels at cell-cell contacts (immunofluorescence): significant increase E-cadherin levels at cell-cell contacts
Renal cancer ACHN cells
  cell proliferation (BrdU): inhibits cell proliferation
LoVo cells [4]
  EMT markers (western blotting): confirmed these results
[5]
  sensitivity to treatment (cell viability, MTT): more sensitive
LoVo cells [6]
  E-cadherin levels at cell-cell contacts (immunofluorescence): significant increase E-cadherin levels at cell-cell contacts
HT29 cells
  cell proliferation (BrdU): reduced cell proliferation
Hakai-MDCK cells
  cell invasion: decreased cell invasion
[7]
  cytotoxicity effect (cell viability, MTT): important inhibitory response
[8]
  ubiquitination when Hakai was not overexpressed: did not affect ubiquitination
